# T1: murine CAR (Mus musculus, UniProt P97792)
# T1 sequence (P97792 20-365): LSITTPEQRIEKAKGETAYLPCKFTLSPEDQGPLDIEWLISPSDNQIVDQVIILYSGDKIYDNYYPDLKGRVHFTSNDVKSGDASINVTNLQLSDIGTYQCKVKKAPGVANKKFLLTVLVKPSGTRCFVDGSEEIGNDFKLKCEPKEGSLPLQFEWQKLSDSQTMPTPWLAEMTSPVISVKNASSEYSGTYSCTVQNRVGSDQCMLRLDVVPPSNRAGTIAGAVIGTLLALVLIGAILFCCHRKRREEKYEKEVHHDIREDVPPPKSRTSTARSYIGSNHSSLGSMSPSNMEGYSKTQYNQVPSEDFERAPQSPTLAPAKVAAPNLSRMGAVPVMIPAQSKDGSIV
# T2: CAR (Mus musculus, UniProt P97792)
# T2 construct: from tissue; host or cells: mouse colonic mucosa
# T2 sequence (P97792 20-365): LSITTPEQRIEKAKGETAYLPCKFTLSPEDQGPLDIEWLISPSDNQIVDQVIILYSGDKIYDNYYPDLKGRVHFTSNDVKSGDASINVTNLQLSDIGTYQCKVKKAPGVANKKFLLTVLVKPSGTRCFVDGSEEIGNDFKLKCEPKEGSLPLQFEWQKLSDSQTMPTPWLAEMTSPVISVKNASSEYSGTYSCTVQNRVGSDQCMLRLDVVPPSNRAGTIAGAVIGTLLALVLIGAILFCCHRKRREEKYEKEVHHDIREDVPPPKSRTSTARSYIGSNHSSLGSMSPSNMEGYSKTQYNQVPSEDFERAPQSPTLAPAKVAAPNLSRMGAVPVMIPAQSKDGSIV
# T3: epithelial CAR (Mus musculus, UniProt P97792)
# T3 construct: from tissue; host or cells: mouse colonic mucosa
# T3 sequence (P97792 20-365): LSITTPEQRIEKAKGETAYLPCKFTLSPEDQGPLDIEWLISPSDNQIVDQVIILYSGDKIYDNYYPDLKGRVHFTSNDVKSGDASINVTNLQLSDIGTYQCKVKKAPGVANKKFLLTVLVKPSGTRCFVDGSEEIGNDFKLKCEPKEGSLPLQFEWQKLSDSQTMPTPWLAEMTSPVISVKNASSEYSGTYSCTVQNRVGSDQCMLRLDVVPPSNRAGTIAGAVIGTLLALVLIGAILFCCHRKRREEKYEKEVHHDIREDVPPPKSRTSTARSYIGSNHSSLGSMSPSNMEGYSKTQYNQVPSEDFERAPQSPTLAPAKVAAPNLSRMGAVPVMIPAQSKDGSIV
# Tests used:
# [1] = test system: JAML shedding from differentiated HL60; assay: JAML shedding with protease inhibitors, differentiated HL60; format: cell-based, human; settings: PMA 200 nM; cocktail 1:50, AEBSF 1 mM, PMSF 2 mM, Phenanthroline 5 mM, NEM 6 mM; sandwich ELISA; FIG. 6A
# Protocol: JAML shedding from differentiated HL60 was assayed as described in the legend for FIG. 5. Protease inhibitors were added to cell suspensions during incubation in H^+ with or without PMA. Inhibitors used were Sigma inhibitor cocktail (Cat #P8340) used at 1:50 dilution, AEBSF 1 mM, PMSF 2 mM, Phenanthroline 5 mM and NEM 6 mM.
# (§1) To explore the mechanisms for release of JAML from the surface of differentiated HL60 and PLB-985 cells during activation with PMA, PMA was added to cells in the presence or absence of a variety of protease inhibitors. The protease inhibitor cocktail from Sigma that targets serine proteases was used as well as cysteine proteases and several independent inhibitors. […] (Le Gall et al., 2003, JBC 278 No46 45255-45268).
# Cells were suspended at 100×10^6 cells/ml in 50 ml centrifuge tubes. PMA was added at a final concentration of 200 nM and tubes incubated at 37° C. of 30 min. Supernatants were collected by centrifugation. To eliminate the presence of macroparticles in the supernatants, ultracentrifugation was performed in a table-top microcentrifuge (Beckman TL-100) at 100,000 g for 30 minutes. The “cleared” supernatants were assayed for the presence of soluble JAML.
# Purified antibody DW100 (100 μl/well of 10 μg/ml dilution) was coated onto a high binding 96 well plate (Immulon II) overnight at 4° C. or 1½ hr at 37° C. After washing, 200 μl of 5% blocking solution (Roche) was added to each well for 1 hr at room temperature (RT). After washing, 100 μl supernatant samples in triplicates were added to the wells as well as serial dilutions of purified sJAML-His and incubated for 1 hr RT. After washing, 100 μl biotinylated DW216 antibodies was added at 10 μg/ml. This was followed after a wash by Streptavidin-HRP diluted at 1:4000. The wells were washed again and after addition of ABTS substrate, wells were analyzed using a microplate reader at 405 nm wavelength.
# [2] = test system: HL-60 and PLB-985 cell lines; assay: Surface JAML on HL-60 and PLB-985 after PMA activation; format: cell-based, human; settings: 200 nM PMA, 30 minutes at 37° C.; FIG. 5A
# Protocol: Both HL60 and PLB985 (non-differentiated and differentiated) were washed in Hanks solution with Ca^++ and Mg^++ (H^+) at 30×10^6 cells per condition and resuspended in 350 μl H^+ or H^+ containing 200 nM PMA followed by 30 minutes incubation at 37° C. A cell aliquot was set aside for flow cytometry and cells were stained with monoclonal CBRM1/29 (CD11b/CD18) or DW100 anti JAML followed by Alexa Fluor 488 conjugated goat anti mouse antibody.
# The findings of JAML shedding were extended to both HL-60 and PLB-985 cell lines. […] Upon activation, human neutrophils release microparticles,called ectosomes, directly from the cell surface and that ectosomes are implicated in the inflammatory response (Eken et al., 2008, J. Immunol. 180, 817-824). To test whether JAML molecules were released in microparticles, supernatants from activated cells were subjected to ultracentrifuge (100,000×g). […] Thus, JAML is indeed shed into the medium upon PMN activation as a soluble molecule.
# monocytes = assay: Surface JAML on monocytes after PMA activation; format: cell-based, human; settings: 15 minutes at 37° C., FIG. 11
# Protocol: Monocytes were isolated and purified from whole blood of healthy human donors, incubated on ice with either IgG control (solid histograms) or purified anti-JAML antibodies (5 μg/ml), followed by Alexa Fluor 488 conjugated goat anti mouse antibody before (NoTx) and after PMA activation (PMA, 15 minutes at 37° C.). JAML surface expression was analyzed by flow cytometry.
# Following the observation of a complete loss of JAML on PMNs that underwent TEM and with the use of JAML specific mAbs, it was determined that the loss of JAML was induced by PMN activation and that it correlated to the degree of activation and the strength of the given stimulus. […] JAML shedding is not restricted to PMNs alone. JAML is also expressed on blood monocytes. […] As monocytes trail the PMNs infiltrating mucosal surfaces, in addition to PMNs they would also be a source for soluble JAML, further enhancing its effects on epithelial function. […] The shedding of JAML is believed to be due to a zinc-dependent metalloprotease that is inhibited by phenanthroline, a zinc chelator molecule and TAPI-2, a hydroxymate acid-base derivative which inhibits zinc-dependent metalloprotease activities by binding specifically to the catalytic site of the enzyme.
# PMN = assay: Surface JAML on PMN after activation (flow cytometry); format: cell-based, human; settings: PMA 200 nM, suspension, 15 minutes at 37° c.; FIG. 4A
# Protocol: Freshly isolated PMN, not treated (No Tx), or treated with either fMLF (100 nM) or PMA (200 nM) in suspension for 15 minutes at 37° c. were fixed with 1% paraformaldehyde, stained for JAML (DW100) and CD11b/CD18 (CBRM 1/29) and analyzed for surface expression by flow cytometry.
# Since prior to transepithelial migration PMNs exit the blood vessels, whether JAML expression on PMNs would be preserved during migration across endothelial cells (HDMECs) towards a 10 μM fMLF, as described previously was evaluated. Indeed under similar conditions only a small portion of surface JAML was lost, but most of it was still detectable on PMN surface (FIG. 3B).
# Thus whether PMN activation alone is sufficient to induce the loss of surface JAML or whether direct contact with the epithelium is required was examined. To test this, the expression of JAML was analyzed on PMNs that were stimulated in suspension with fMLF (100 μM) and PMA (200 nM). PMNs were allowed to adhere to epithelial cells for 1 hour. The loss of JAML could be correlated to the degree of PMN activation. […] This was again confirmed by immunofluorescence (FIG. 4B). PMN adhesion to epithelium in the absence of proinflamatory stimulus (as measured by flow cytometry, gating on Mac-1 positive PMNs) was also sufficient to induce a partial loss of surface JAML (FIG. 4C), in agreement with the small loss of surface JAML observed after migration through endothelial cells (FIG. 3B). […] Next, the observed loss of JAML during PMN activation may be due to its shedding from PMN surface and thus would be detectable in the supernatant of activated cells. To test this hypothesis, two antibodies, DW100 and DW216 that recognize two different epitopes of JAML were used in a sandwich ELISA assay to capture solubilized molecules in the supernatant of activated PMN.
# [3] = test system: JAML shedding from PLB985; assay: JAML shedding with protease inhibitors, PLB985; format: cell-based, human; settings: Phenanthroline; TAPI-2 1 μM
# Protocol: FIG. 5C. Inhibition of JAML shedding on the cell surface of PLB985 was confirmed by FACS analysis of cells stained with DW216. In the presence of inhibitors, activated cells maintained the same level of surface expression as the non-activated cells.
# as §1
# Cells suspensions of adherent cells were prepared by trypsinization with Trypsin-EDTA (Sigma). After washing, cells were resuspended in FACS buffer (2% FBS in PBS+0.1% Na Azide). Approximately, 3-5×10^5 cells were incubated with 5-10 μg/ml of primary antibody for 1 hr at 4° C. followed by 3 washes in FACS buffer and incubation with 1 μg/ml secondary antibody conjugated with Alexa-488. After final washes, cells were analyzed using FACS Calibur. […] All samples were stained for JAML (DW100 mAb) and CD11b/CD18 (CBRM 1/29), and only CD11b/CD18 positive cells (PMNs) were analyzed for JAML expression.
# [4] = test system: JAML release from CHO-JAML-His transfectants; assay: JAML release with protease inhibitors, CHO-JAML-His transfectants; format: cell-based
# murine CAR = target: T1, murine CAR; settings: cited from earlier work
# CAR = target: T2, CAR; assay: Colonic mucosal wound healing in vivo; settings: mice; I.P. twice a day 10 μg in 200 μl PBS; endoscopic imaging; FIG. 13B
# Protocol: (§2) To examine this in-vivo, the effect of inhibition of CAR function was analyzed on mucosal wound recovery. […] See Witherden et al., Science, 2010, 329(5996): 1205-1210. Whether administration of recombinant Ad5 inhibits colonic wound healing was examined in mice in a fashion analogous to the endogenous CAR ligand, JAML. Colonic mucosal wounds were generated using a mouse colonoscope, and wound recovery was examined 2 and 4 days post wounding by endoscopic imaging in the presence of Ad5, Ad11 (administered I.P, twice a day 10 μg in 200 μl PBS) or PBS alone.
# as §2, with “function” for “function was analyzed”, “recovery was analyzed.” for “recovery.”, “colonoscope (FIG. 13, Panel A),” for “colonoscope,”, “alone. […] The delayed wound closure was also evident from histological analysis (representative images, FIG. 13, Panel C) and whole mount preparation (representative images, FIG. 13, Panel D).” for “alone.”
# epithelial CAR = target: T3, epithelial CAR; assay: Immunofluorescence of wounded mouse colonic tissue; format: in vivo; settings: I.P. administered his-tagged protein; 1 day after wounding; FIG. 13E
molecule,measurement,setting,value
NCCc1ccc(S(=O)(=O)F)cc1 [AEBSF],"inhibition of PMA-induced JAML shedding, differentiated HL60",[1],No decrease in JAML shedding
"CCN1C(=O)C=CC1=O [N-Ethyl maleimide, N-Ethylmaleimide]","inhibition of PMA-induced JAML shedding, differentiated HL60",[1],No decrease in JAML shedding
"CCCCCCCCCCCCCC(=O)O[C@@H]1[C@@H](C)[C@@]2(O)[C@@H](C=C(CO)C[C@]3(O)C(=O)C(C)=C[C@@H]23)[C@@H]2C(C)(C)[C@]12OC(C)=O [PMA, Phorbol Myristate Acetate]",surface JAML on HL-60 and PLB-985 after PMA,[2],complete loss of surface JAML
same,JAML expression on monocytes after PMA,monocytes,lost upon activation with PMA
same,surface JAML on PMN after PMA,PMN,complete loss of surface JAML from PMNs
"O=S(=O)(F)Cc1ccccc1 [PMSF, Phenylmethylsulfonyl fluoride]","inhibition of PMA-induced JAML shedding, differentiated HL60",[1],showed some inhibition
CC(C)C[C@H](CC(=O)NO)C(=O)N[C@H](C(=O)N[C@@H](C)C(=O)NCCN)C(C)(C)C [TAPI-2],"inhibition of PMA-induced JAML shedding, PLB985",[3],inhibition of shedding
same,"inhibition of PMA-induced JAML release, CHO-JAML-His transfectants",[4],strongly inhibited JAML release due to PMA activation
"Ad5: recombinant adenoviral fiber knob protein Ad5, reported to bind murine CAR (protein, left off: small tags and cut ends) GAITVGNKNNDKLTLWTTPAPSPNCRLNAEKDAKLTLVLTKCGSQILATVSVLAVKGSLAPISGTVQSAHLIIRFDENGVLLNNSFLDPEYWNFRNGDLTEGTAYTNAVGFMPNLSAYPKSHGKTAKSNIVSQVYLNGDKTKPVTLTITLNGTQETGDTTPSAYSMSFSWDWSGHNYINEIFATSSYTFSYIAQE",binding to murine CAR and competition with JAML binding (Witherden et al. 2010),murine CAR,has been reported to bind murine CAR and compete with JAML binding
same,mucosal wound healing 4 days after wounding,CAR,~20%
same,colocalization with epithelial CAR at wounded areas,epithelial CAR,colocalizes with epithelial CAR at wounded areas

# From US10465005B2, “JAML specific binding agents, antibodies, and uses related thereto” (Emory University, priority 2011, dated 2019)
